Measured values as given in patent publication US11780826B2 (Amgen Inc., priority 2017, dated 2023).

Test system: Bovine cardiac myofibrils
Assay: In vitro model of dose-dependent myofibril ATPase modulation (AC1.4, pyruvate kinase/lactate dehydrogenase-coupled ATPase assay at pCa25)
Type: biochemical
Conditions: concentration at which ATPase activity was 1.4-fold higher than the bottom of the dose curve, mean of a minimum of two independent tests
Method in brief: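 Absorbance at 340 nm tracked ATP hydrolysis through pyruvate kinase/lactate dehydrogenase coupling (0.5 mM NADH, 1.5 mM PEP). Myofibrils from detergent-homogenized bovine heart, 1 mM ATP, pH 6.80, EGTA/CaCl2 buffering. Dose-response curves fitted with a four-parameter Hill equation.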

SMILES	AC1.4 [µM]
O=C(NCc1ccc(C(F)(F)F)cc1)[C@H]1CCCN1C(=O)[C@H]1CCCN(S(=O)(=O)N2CC(F)(C3CC3)C2)C1 [Example 450, 1-(((3S)-1-((3-cyclopropyl-3-fluoro-1-azetidinyl)sulfonyl)-3-piperidinyl)carbonyl)-N-(4-(trifluoromethyl)benzyl)-D-prolinamide]	1.8545
C[C@H]1[C@@H](C(=O)N2CCC[C@@H]2C(=O)NCc2ccc(C(F)(F)F)cc2)CCCN1S(=O)(=O)N1CC(C#N)C1 [Example 271, 1-(((2S,3S)-1-((3-cyano-1-azetidinyl)sulfonyl)-2-methyl-3-piperidinyl)carbonyl)-N-(4-(trifluoromethyl)benzyl)-D-prolinamide]	0.6874
Cc1ccc(CNC(=O)[C@H]2CCCN2C(=O)c2cccc(S(=O)(=O)N3CC(C#N)C3)c2)nc1 [Example 520, 1-(3-((3-cyano-1-azetidinyl)sulfonyl)benzoyl)-N-((5-methyl-2-pyridinyl)methyl)-D-prolinamide]	2.5075
CCS(=O)(=O)c1cccc(C(=O)N2[C@@H](C(=O)N[C@@H](c3cc(F)c(Cl)cc3F)C3COC3)C[C@H]3C[C@H]32)c1 [Example 66, (1R,3R,5R)-N-((R)-(4-chloro-2,5-difluorophenyl)(3-oxetanyl)methyl)-2-(3-(ethylsulfonyl)benzoyl)-2-azabicyclo[3.1.0]hexane-3-carboxamide]	0.0766
CC(O)C(NC(=O)[C@H]1C[C@H]2C[C@H]2N1C(=O)c1cccc(S(C)(=O)=O)c1)c1ccc(C(F)(F)F)cc1F (stereo partly drawn) [Example 601, (1R,3R,5R)-N-(1-(2-fluoro-4-(trifluoromethyl)phenyl)-2-hydroxypropyl)-2-(3-(methylsulfonyl)benzoyl)-2-azabicyclo[3.1.0]hexane-3-carboxamide]	3.276
Cc1cc(C(C)NC(=O)[C@H]2CCCN2C(=O)[C@H]2CCCN(S(=O)(=O)N3CC(C#N)C3)C2)ccc1F (stereo partly drawn) [Example 592, (2R)-1-((S)-1-((3-cyanoazetidin-1-yl)sulfonyl)piperidine-3-carbonyl)-N-(1-(4-fluoro-3-methylphenyl)ethyl)pyrrolidine-2-carboxamide]	3.477
O=C1NCCCCC1NS(=O)(=O)N1CCC[C@H](C(=O)N2CCC[C@@H]2C(=O)NCc2ccc(C(F)(F)F)cc2)C1 (stereo partly drawn) [Example 473, (2R)-1-((3S)-1-(N-(2-oxoazepan-3-yl)sulfamoyl)piperidine-3-carbonyl)-N-(4-(trifluoromethyl)benzyl)pyrrolidine-2-carboxamide]	2.035
COc1cccc2c1CCC2NC(=O)[C@H]1CCCN1C(=O)[C@H]1CCCN(S(=O)(=O)N2CC(C#N)C2)C1 (stereo partly drawn) [Example 242, (2R)-1-((S)-1-((3-cyanoazetidin-1-yl)sulfonyl)piperidine-3-carbonyl)-N-(4-methoxy-2,3-dihydro-1H-inden-1-yl)pyrrolidine-2-carboxamide]	0.573
CS(=O)(=O)c1cccc(C(=O)N2CCCC[C@@H]2C(=O)N[C@@H](c2ccc(C(F)(F)F)cc2F)C2CC2)c1 [Example 253, (2R)-N-((R)-cyclopropyl(2-fluoro-4-(trifluoromethyl)phenyl)methyl)-1-(3-(methylsulfonyl)benzoyl)-2-piperidinecarboxamide]	0.6092
Cc1cccc(CNC(=O)[C@H]2CCCN2C(=O)[C@H]2CCCN(S(=O)(=O)N3CC(C#N)C3)C2)c1 [Example 643, 1-(((3S)-1-((3-cyano-1-azetidinyl)sulfonyl)-3-piperidinyl)carbonyl)-N-(3-methylbenzyl)-D-prolinamide]	4.3125
N#CC1CN(S(=O)(=O)N2CCC[C@H](C(=O)N3CCC[C@@H]3C(=O)NC(c3cc(F)ccc3F)C(F)F)C2)C1 (stereo partly drawn) [Example 524, (2R)-1-((S)-1-((3-cyanoazetidin-1-yl)sulfonyl)piperidine-3-carbonyl)-N-(1-(2,5-difluorophenyl)-2,2-difluoroethyl)pyrrolidine-2-carboxamide]	2.583
N#CC1CN(S(=O)(=O)N2CCC[C@H](C(=O)N3[C@@H]4C[C@@H]4C[C@H]3C(=O)NCc3ccc(C(F)(F)F)cc3)C2)C1 [Example 801, (1R,3S,5R)-2-(((3S)-1-((3-cyano-1-azetidinyl)sulfonyl)-3-piperidinyl)carbonyl)-N-(4-(trifluoromethyl)benzyl)-2-azabicyclo[3.1.0]hexane-3-carboxamide]	9.578
CS(=O)(=O)c1cccc(C(=O)N2CCC[C@@H]2C(=O)N[C@@H](c2ccc(Cl)cc2F)C2CC2)c1 [Example 479, N-((R)-(4-chloro-2-fluorophenyl)(cyclopropyl)methyl)-1-(3-(methylsulfonyl)benzoyl)-D-prolinamide]	1.887
CS(=O)(=O)c1ccc(F)c(C(=O)N2CCC[C@@H]2C(=O)N[C@@H](c2ccc(C(F)(F)F)cc2F)C2CC2)c1F [Example 563, N-((R)-cyclopropyl(2-fluoro-4-(trifluoromethyl)phenyl)methyl)-1-(2,6-difluoro-3-(methylsulfonyl)benzoyl)-D-prolinamide]	2.8195
Cc1ccc(C(=O)N2[C@@H](C(=O)N[C@@H](c3cc(F)c(Cl)cc3F)C3COC3)C[C@H]3C[C@H]32)cc1S(C)(=O)=O [Example 472, (1R,3R,5R)-N-((R)-(4-chloro-2,5-difluorophenyl)(3-oxetanyl)methyl)-2-(4-methyl-3-(methylsulfonyl)benzoyl)-2-azabicyclo[3.1.0]hexane-3-carboxamide]	1.807
N#CC1CN(S(=O)(=O)N2CCC[C@H](C(=O)N3CCC[C@@H]3C(=O)NC3Cc4ccccc43)C2)C1 (stereo partly drawn) [Example 705, (2R)-N-(bicyclo[4.2.0]octa-1 (6),2,4-trien-7-yl)-1-((S)-1-((3-cyanoazetidin-1-yl)sulfonyl)piperidine-3-carbonyl)pyrrolidine-2-carboxamide]	5.7373
O=C(N[C@@H](c1cc(F)c(C(F)(F)F)cc1F)C1CC1)[C@H]1C[C@H]2C[C@H]2N1C(=O)c1cccc(C(F)(F)F)c1 [Example 115, (1R,3R,5R)-N-((R)-cyclopropyl(2,5-difluoro-4-(trifluoromethyl)phenyl)methyl)-2-(3-(trifluoromethyl)benzoyl)-2-azabicyclo[3.1.0]hexane-3-carboxamide]	0.1774
C[C@H](NC(=O)[C@@H](C)N(C)C(=O)c1cccc(S(=O)(=O)N2CC(C#N)C2)c1)c1ccc(Cl)cc1 [Example 331, N-((1R)-2-(((1S)-1-(4-chlorophenyl)ethyl)amino)-1-methyl-2-oxoethyl)-3-((3-cyano-1-azetidinyl)sulfonyl)-N-methylbenzamide]	0.8976
N#CC1CN(S(=O)(=O)N2CCC[C@H](C(=O)N3CCC[C@@H]3C(=O)N[C@H](CC3CC3)c3ccc(C(F)(F)F)cc3)C2)C1 [Example 14, 1-(((3S)-1-((3-cyano-1-azetidinyl)sulfonyl)-3-piperidinyl)carbonyl)-N-((1R)-2-cyclopropyl-1-(4-(trifluoromethyl)phenyl)ethyl)-D-prolinamide]	0.0227
CC1(O)CN(S(=O)(=O)N2CCC[C@H](C(=O)N3C[C@@H](F)C[C@@H]3C(=O)NCc3ccc(C(F)(F)F)cc3)C2)C1 [Example 683, (4S)-4-fluoro-1-(((3S)-1-((3-hydroxy-3-methyl-1-azetidinyl)sulfonyl)-3-piperidinyl)carbonyl)-N-(4-(trifluoromethyl)benzyl)-D-prolinamide]	5.096
